Data as given in patent US11358931B2, “Selective androgen receptor modulators (SARMs) and uses thereof” (priority 2007, dated 2022).

What was measured:
[1] = 14-day oral toxicity study in Sprague Dawley rats; type: in vivo, rat; conditions: Sprague-Dawley, rat, in vivo; SD rats, oral gavage once daily for 14 days; read-out: No-observed-adverse-effect level (NOAEL)
Protocol: (§1) A Sprague Dawley Rat model was used to study oral toxicity and toxicokinetics. Animals were assigned to groups by a stratified randomization scheme designed to achieve similar group mean body weights and the groups were randomly assigned to a dosing to provide control of bias.
(§2) All animals were dosed via oral gavage once daily for 14 days. The animals were evaluated for changes in clinical signs (mortality/morbidity observations, twice daily), cage side observations (general appearance and behavior), food consumption (quantitatively measured by weighing), body weights, clinical pathology indices including serum chemistry, hematology, coagulation and urinalysis, and other parameters. Blood samples were collected for toxicokinetics analysis from Groups 6-10 at various time points on Days 1 and 14 (Group 6 4 hours post dose; Groups 7-10 at 1, 4 and 12 hours or 2, 8 and 24 hours). The animals were fasted for at least 8 hours prior to blood collections for serum chemistry and urine collection. Serum chemistry parameters tested included alanine aminotransferase, total protein, aspartate aminotransferase, albumin, alkaline phosphatase, globulin, gamma-glutamyl-transferase, albumin/globulin ratio, lactate dehydrogenase, glucose, total bilirubin, cholesterol, urea nitrogen, triglycerides, creatinine, sodium, calcium, potassium, phosphorus and chloride. Hematology parameters analyzed included red blood cell count, reticulocyte count, hemoglobin concentration, red blood cell distribution width, mean corpuscular volume, mean platelet volume, mean corpuscular hemoglobin concentration, white blood cell count and differentials and mean corpuscular hemoglobin. Urinalysis parameters included color/character, ketones, specific gravity, bilirubin, pH, occult blood, protein, glucose and microscopics. Main study animals were euthanized on Day 15. At termination, a full necropsy was conducted and all tissues were collected, preserved, processes and examined microscopically from Groups 1 and 5, and target organs (liver and kidney) from Groups 2-4, by a veterinary pathologist certified by the American College of Veterinary Pathologists.
(§3) Control vehicle included Peg-400 (Sigma P-3265), Tween 80 (Sigma P-8074) and PVP-K30 (polyvinyl pyrrolidone or povidone K-30, Spectrum PN P1454) at a ratio of 90:5:5, w/w/w. Appropriate amounts of Compound 102 were added to the control vehicle to produce homogeneous dosing solutions/suspensions.

Sprague-Dawley rats = experiment: 14-day oral toxicity study in Sprague Dawley rats; type: in vivo, rat
Protocol: as §1, §2, §3

[2] = Toxicokinetics in Sprague Dawley rats (14-day oral study); type: in vivo, rat
Protocol: as §1, §2

[3] = 14-day oral toxicity study in cynomolgus monkeys; type: in vivo, cynomolgus monkey; conditions: cynomolgus monkey, in vivo, oral, cynomolgus monkeys, nasal gavage once daily 14 days
Protocol: (§4) A study was performed to determine any potential toxicity and the toxicokinetic profile of Compound 102 when administered orally (via nasal gavage) to cynomolgus monkeys for at least 14 days. The cynomolgus monkey was chosen for this study as it is a non-rodent species that is commonly used for non-clinical toxicity evaluations. Use of the monkey model maximized the likelihood of identifying toxicological responses that may occur in humans. Ten experimentally naïve cynomolgus monkeys (5 male and 5 female) from about 2.5 to 3 years of age and weighing between about 2.3 to about 2.8 kg at Day −1 of the study were assigned to dose groups as shown in Table 6 below.
(§5) All animals were dosed via nasal gavage once daily for 14 consecutive days. The first day of dosing was designated Day 1 for all animals. The animals were evaluated for clinical signs (evaluation of mortality and morbidity, twice daily), cage side observations and food consumption (once daily), body weight (Days 1, 8 and 14), physical examination (Day −5 and post dosing following the 13/24 hour toxicokinetic collection on Day 14), ophthalmic examination (prestudy and owing the Day 13/24 hour toxicokinetic collection on Day 14), and clinical pathology parameters (serum chemistry, hematology and coagulation on Days −3 and 14), urine samples were collected during necropsy (Day 15) for urinalysis. Blood samples were collected for toxicokinetic analysis at 1, 2, 4, 8, 12 and 24 hours post dose on Days 1 and 13.
(§6) All ten animals were euthanized one day after the last dose. At termination, a full necropsy was conducted on all animals, and tissues were collected, preserved, processed and examined microscopically by an American College of Veterinary Pathologists (ACVP) certified pathologist.
(§7) Vehicle was composed of PEG 400/Tween® 80/PVP-K30 (90/5/5, w/w/w). Appropriate amounts of Compound 102 were added to vehicle to prepare the suspension of test compound administered to the animals
(§8) Blood samples for evaluation of serum chemistry, hematology and coagulation parameters were collected from all animals on Days −3 and 14. Urine samples were obtained by bladder puncture during necropsy. The animals were fasted for at east 8 hours prior to blood collections for serum chemistry. Serum chemistry parameters included alanine aminotransferase (ALT), total protein, aspartate aminotransferase (AST), alkaline phosphatase (ALP), gamma-glutamyltransferase (GGT), albumin, globulin, albumin/globulin ratio, lactate dehydrogenase (LD), glucose, total bilirubin, cholesterol, urea nitrogen (BUN), creatinine, triglycerides, sodium, calcium, potassium, phosphorus, chloride and carbon dioxide. Hematology parameters included red blood cell count, hemoglobin concentration, hematocrit, mean corpuscular volume (MCV), mean corpuscular hemoglobin concentration (MCHC), mean corpuscular hemoglobin (MCH), red cell distribution width, reticulocyte count, platelet count, mean platelet volume (MPV) and white blood cell count. Coagulation parameters included prothrombin time (PT) and activated partial thromboplastin time. Urinalysis parameters included color/character, specific gravity, pH, protein, glucose, ketones, bilirubin, occult blood and microscopics.

cynomolgus monkeys = experiment: 14-day oral toxicity study in cynomolgus monkeys; type: in vivo, cynomolgus monkey
Protocol: as §4, §5, §6, §7, §8

[4] = Toxicokinetics in cynomolgus monkeys (14-day oral study); type: in vivo, cynomolgus monkey
Protocol: as §4, §5

[5] = Oral bioavailability in animal species; conditions: multiple animal species, including monkeys

In the case of `N#Cc1ccc(N2CCC[C@@H]2[C@@H](O)C(F)(F)F)cc1C(F)(F)F` [Compound 102, R,R-4-(2-(1-Hydroxyl-2,2,2-trifluoroethyl)-pyrrolidinyl)-2-trifluoromethyl-benzonitrile], the NOAEL at 14 days [1] is reported as 700 mg/kg/day, the “morbidity / early death” value (Sprague-Dawley rats; 10, 100, 300 or 700 mg/kg/day, 14 days) is reported as “not associated with test article-related morbidity or early death” and the “macroscopic or microscopic changes (postmortem)” value (Sprague-Dawley rats; 10-700 mg/kg/day) is reported as “no macroscopic or microscopic changes”. The urinalysis parameters (Sprague-Dawley rats; 10-700 mg/kg/day) was “no alterations”, the liver weight (Sprague-Dawley rats; both sexes, not correlated with hepatocellular size or liver pathology) was “Dose-dependent liver weight increases” and the food consumption (Sprague-Dawley rats; female animals, all dose levels) was “statistically significant increase in food consumption”. For the same compound, the “alkaline phosphatase values and phosphorus concentrations” value (Sprague-Dawley rats; female rats dosed at ≥10 mg/kg/day) was “minimally higher”, the “reticulocyte counts and red cell distribution width” value (Sprague-Dawley rats; female rats ≥10 mg/kg/day) was “higher reticulocyte counts and red cell distribution width” and the platelet counts (Sprague-Dawley rats; females ≥100 mg/kg/day, males 10 and 700 mg/kg/day) was “increased with statistical significance”. The prothrombin time (Sprague-Dawley rats; male and female animals, 300 and 700 mg/kg/day) was “minimal prolongation”, the body weight gain (Sprague-Dawley rats; male and female animals, versus control) was “increased weight gain compared to control animals” and the triglyceride concentrations (Sprague-Dawley rats; male rats ≥100 mg/kg/day, female rats ≥300 mg/kg/day) was “minimally lower”. The potassium levels (Sprague-Dawley rats; male rats ≥300 mg/kg/day, female rats ≥100 mg/kg/day) was “minimally higher”, the clinical observations (Sprague-Dawley rats; particularly female animals at ≥100 mg/kg/day) was “increased incidence and frequency in rough hair coat and nasal discharge” and the “sex difference of systemic exposure” value ([2]; Day 1) was “higher systemic exposure in females across all dose levels”. The “systemic exposure at 700 mg/kg/day” value ([2]; Day 1, 700 mg/kg/day) was “not increased, indicating that absorption was saturated”, the “systemic exposure versus dose” value ([2]; Day 1, male and female rats) was “increased with increasing dose up to 300 mg/kg/day” and the “effect of repeat administration on systemic exposure” value ([2]; Day 14 vs Day 1, more pronounced in high dose groups) was “decreased systemic exposure”. The NOAEL at 14 days ([3]; female, females) was 150 mg/kg, the NOAEL at 14 days ([3]; male, males) was 450 mg/kg and the “platelet counts lower on Day 14 relative to Day −3” value (cynomolgus monkeys; 5, 50 and 150 mg/kg males and females and 450 mg/kg female) was 14% to 38%. For the same compound, the serum cholesterol concentration (cynomolgus monkeys; Day 14, all dosed animals) was “decreased”, the “prothrombin time longer than Day −3” value (cynomolgus monkeys; Day 14, all dosed animals except the 5 mg/kg female) was 1.8 to 3.5 s and the “microscopic findings (histopathology)” value (cynomolgus monkeys; all dose levels) was “no direct Compound 102-related microscopic findings”. For the same compound, the ophthalmic examinations (cynomolgus monkeys; all dose levels) was “no Compound 102-related findings”, the urinalysis parameters (cynomolgus monkeys; all dose levels) was “no Compound 102-related effects” and the body weight (cynomolgus monkeys; all dosed animals relative to controls) was “dose-independent increase in body weight”. The gross necropsy findings (cynomolgus monkeys; both sexes at 150 and 450 mg/kg) was “decreased thymus size and brown discoloration of the adrenals”, the NOEL (cynomolgus monkeys; cynomolgus monkeys, 14 days) was “not achieved” and the “mortality, clinical signs, food consumption, histologic effects” value (cynomolgus monkeys; daily administration for 14 days, all dose levels) was “did not result in mortality, adverse clinical signs or changes in food consumption or histologic effects”. The “serum ALT and AST activity” value (cynomolgus monkeys; female animal dosed with 450 mg/kg, after 14 days) was “elevated”, the thymus histology (cynomolgus monkeys; males at 150 mg/kg and above, females at 50 mg/kg and above, considered secondary to stress) was “Minimal to mild lymphoid cortical depletion of the thymus” and the “sex difference in toxicokinetic parameters” value ([4]; Day 1 and Day 13) was “no noticeable sex difference”. The “effect of repeat administration on systemic exposure” value ([4]; Day 13 relative to Day 1) was “decreased on Day 13”, the “systemic exposure versus dose” value ([4]; both sexes) was “increased with increasing dose up to 450 mg/kg” and the oral bioavailability [5] was “orally bioavailable”.
